Here are results for 14 molecules from US8710237B2, “Small molecule inhibitors of kynurenine-3-monooxygenase” (The J. David Gladstone Institute, priority 2006, dated 2014).

As a reminder, the melting point is the temperature, or range, at which the solid turns liquid. What is called % inhibition is the share of the control response that was lost under treatment. Higher therefore signals a response far below the control.

Marks after values point to notes of the source that are not given here.

The test system of series [1] is kynurenine-3-monooxygenase. Kind of series: KMO inhibition, radiometric assay (Erickson et al.). The conditions noted are these: 10 μM compound. In kind it is biochemical. The method, then: The KMO inhibiting activities of the compounds of the present invention were evaluated using standard methods. See Erickson et al., A Radiometric Assay for Kynurenine 3-Hydroxylase Based on the Release of ^3H2O During Hydroxylation of L-[3,5-^3H]-Kynurenine, Anal. Biochem. 1992, 205, 257-262, the disclosure of which is hereby incorporated by reference.
The IC50 value is the half maximal inhibitory concentration and represents the concentration of an inhibitor that is required for 50% inhibition of an enzyme activity and the percent inhibition measures the amount of enzyme activity inhibited at a given concentration of compound.

For series [2], the system named is 3-HK in the brain. Description: In vivo comparison: 3-HK in the brain after oral administration (FIG. 12). From the text:
The structure of the compound 61-8048 is as below:

Series [3] deals with R6/2 model of Huntington's disease. Description: Survival in a mouse model of Huntington's disease (FIG. 13). In kind it is in vivo. To be noted: R6/2 mice. From the text:
The structure of the compound M is

`COc1ccc(S(=O)(=O)Nc2nc(-c3cccc([N+](=O)[O-])c3)c(CN3CCSCC3)s2)cc1OC` gave a melting point of 136 °C. Consider `COc1ccc(S(=O)(=O)Nc2nc(-c3cccc([N+](=O)[O-])c3)c(CN(C)C)s2)cc1OC` [A, 3,4-dimethoxy-N-[4-(3-nitrophenyl)-5-dimethylaminomethyl-1,3-thiazole-2-yl]benzenesulfonamide], for which the melting point amounted to 203 °C. For the same molecule, the “% inhibition at 10 μM” value in series [1] worked out at 58%. Molecule `COc1ccc(S(=O)(=O)Nc2nc(-c3cccc([N+](=O)[O-])c3)c(CN3CCCC3)s2)cc1OC` [B, 3,4-dimethoxy-N-[4-(3-nitrophenyl)-5-(pyrrolidin-1-ylmethyl)-1,3-thiazole-2-yl]benzenesulfonamide] returned a melting point of 198 to 200 °C. In addition, the “% inhibition at 10 μM” value in series [1] is listed as 9* %. As for `COc1ccc(S(=O)(=O)Nc2nc(-c3cccc([N+](=O)[O-])c3)c(CN3CCCCC3)s2)cc1OC` [C, 3,4-dimethoxy-N-[4-(3-nitrophenyl)-5-(piperidin-1-ylmethyl)-1,3-thiazole-2-yl]benzenesulfonamide], in series [1], the “% inhibition at 10 μM” value stood at 24%.

With `COc1ccc(S(=O)(=O)Nc2nc(-c3cccc([N+](=O)[O-])c3)cs2)cc1OC` [Compound 61-8048, 3,4-Dimethoxy-N-[4-(3-nitrophenyl)thiazol-2-yl]benzenesulfonamide, reference compound], the “decrease of 3-HK in the brain” value in series [2] is on record as “does not decrease”. Also, in series [3] (100 mg/kg/day, not shown in the figure), the effect on survival entry is on record as “did not have a significant effect on survival”. Consider `COc1ccc(S(=O)(=O)N(CN2CCCCC2)c2nc(-c3cccc([N+](=O)[O-])c3)cs2)cc1OC` [Compound M], for which, in series [3], the “magnitude of the effect of protection (survival)” value is on record as “equal to or greater to that reported for any single agent administered in this model”. `COc1ccc(S(=O)(=O)Nc2nc(-c3cccc([N+](=O)[O-])c3)c(CN3CCOCC3)s2)cc1OC` [D, 3,4-dimethoxy-N-[4-(3-nitrophenyl)-5-morpholinomethyl-1,3-thiazole-2-yl]benzenesulfonamide] came in with a melting point of 143 °C. In series [1], the “% inhibition at 10 μM” value was 64%. Taken in the same sequence, the figures for `COc1ccc(S(=O)(=O)Nc2nc(-c3cccc([N+](=O)[O-])c3)c(CN3CCN(C)CC3)s2)cc1OC` [E, 3,4-dimethoxy-N-[4-(3-nitrophenyl)-5-((4-methylpiperazin-1-yl)methyl)-1,3-thiazole-2-yl]benzenesulfonamide] were 215 to 217 °C and 6* %. Taken in the same sequence, the figures for `CCN(CC)Cc1sc(NS(=O)(=O)c2ccc(OC)c(OC)c2)nc1-c1cccc([N+](=O)[O-])c1` [F, 3,4-dimethoxy-N-[4-(3-nitrophenyl)-5-(diethylamino)methyl-1,3-thiazole-2-yl]benzenesulfonamide] were 165 to 168 °C and 74%. Taken in the same sequence, the figures for `CCCN(C)Cc1sc(NS(=O)(=O)c2ccc(OC)c(OC)c2)nc1-c1cccc([N+](=O)[O-])c1` [G, 3,4-dimethoxy-N-[4-(3-nitrophenyl)-5-(methylpropylamino)methyl-1,3-thiazole-2-yl]benzenesulfonamide] were 143 to 145 °C and 73%.

`COc1ccc(S(=O)(=O)N(C)c2nc(-c3cccc([N+](=O)[O-])c3)cs2)cc1OC` [T, 3,4-dimethoxy-N-[4-(3-nitrophenyl)thiazol-2-yl]-N-(methyl)benzenesulfonamide]: in series [1], the “% inhibition at 10 μM” value is 52%. Same read-out and setting: the value for `CCOC(=O)CN(c1nc(-c2cccc([N+](=O)[O-])c2)cs1)S(=O)(=O)c1ccc(OC)c(OC)c1` [U, 3,4-dimethoxy-N-[4-(3-nitrophenyl)thiazol-2-yl]-N-[(ethylcarboxylate)methyl]benzenesulfonamide] was 81%; that for `CCOC(=O)N(c1nc(-c2cccc([N+](=O)[O-])c2)cs1)S(=O)(=O)c1ccc(OC)c(OC)c1` [V, 3,4-dimethoxy-N-[4-(3-nitrophenyl)thiazol-2-yl]-N-(ethylcarboxylate)benzenesulfonamide] was 84%; that for `COC(=O)N(c1nc(-c2cccc([N+](=O)[O-])c2)cs1)S(=O)(=O)c1ccc(OC)c(OC)c1` [W, 3,4-dimethoxy-N-[4-(3-nitrophenyl)thiazol-2-yl]-N-(methylcarboxylate)benzenesulfonamide] was 85%.
